Legend:
Assay type in all cases: functional, Homo sapiens
Settings in all cases: Homo sapiens, read-out: Cell Viability; for viability at 10 µM: Concentration 10 uM; for viability at 1 µM: Concentration 1 uM
[1] = system: Colon cancer organoid; assay: Targeting of F14 CAF-induced therapy resistance in O23 CRC organoid-stroma co-culture. Cell viability is reported without Gefitinib.
[2] = system: Colon cancer organoid; assay: Targeting of F14 CAF-induced therapy resistance in O14 CRC organoid-stroma co-culture. Cell viability is reported with Gefitinib.
[3] = system: Colon cancer organoid; assay: Targeting of F14 CAF-induced therapy resistance in O23 CRC organoid-stroma co-culture. Cell viability is reported with Gefitinib.
[4] = system: Colon cancer organoid; assay: Targeting of F14 CAF-induced therapy resistance in O23 CRC organoid-stroma co-culture. Cell viability is reported with SN-38.
[5] = system: Colon cancer organoid; assay: Targeting of F14 CAF-induced therapy resistance in O14 CRC organoid-stroma co-culture. Cell viability is reported without Gefitinib.

Row | Compound | viability at 10 µM [1] [%] | viability at 10 µM [2] [%] | viability at 10 µM [3] [%] | viability at 10 µM [4] [%] | viability at 10 µM [5] [%] | viability at 1 µM [1] [%] | viability at 1 µM [2] [%] | viability at 1 µM [3] [%] | viability at 1 µM [4] [%] | viability at 1 µM [5] [%]
1 | O=C1NC(c2ccccn2)Sc2ccccc21 (stereo not given) [BTZO-4] | 142 | 48.9 | 56.6 | 100 | 112 |  |  |  |  | 
2 | CN(C)C(=O)c1ccc(-c2cc(C(=O)N(C)C3CCCC3)no2)cc1O | 111 | 52.8 | 55.9 | 76.4 | 103 |  |  |  |  | 
3 | CCCOc1ccn2c(C(C)=O)cc(-c3ccccc3S(C)(=O)=O)c2c1 | 113 | 59.1 | 65.2 | 98.8 | 111 |  |  |  |  | 
4 | COc1cc(-c2cn([C@H]3CCc4c(F)cccc4N(CC(F)(F)F)C3=O)nn2)ccc1-n1cnc(C)c1 | 86.7 | 38.5 | 72 | 69.6 | 108 |  |  |  |  | 
5 | Cc1ccccc1Oc1cc(-n2c(=O)cc(C(F)(F)F)[nH]c2=O)c2ccccc2c1Cl [BAY-069] | 116 | 40.6 | 56.6 | 51.3 | 167 |  |  |  |  | 
6 | O=C(c1ccc(F)cc1)N1CC(COc2ccc(Br)cc2)(C(=O)O)C1 [PF-04475866] |  |  |  |  |  | 118 | 36.4 | 66.8 | 85.2 | 159
7 | CNC(=O)c1cc(C(=O)N[C@H]2[C@@H]3COC[C@@H]32)cc2c1O[C@@H](CF)[C@@H]2c1ccccc1 [GSK943] | 67.7 | 30.9 | 76.1 | 64.3 | 75.9 |  |  |  |  | 
8 | CN(C)c1ncnc(-c2ccc3nc(Nc4cc(CN5CCN(C(=O)CC(F)(F)F)CC5)ccn4)[nH]c3c2)c1Cl [BAY-440] | 160 | 68.9 | 78.1 | 92.8 | 114 |  |  |  |  | 
9 | N#CC1(c2ccccn2)CCN(Cc2cc(C(=O)O)c(=O)n3ccccc23)CC1 [MSD-M1PAM] | 118 | 37 | 64.3 | 71.9 | 84.9 |  |  |  |  | 
10 | COc1ccccc1C(=O)Nc1cc2c(cc1N1CCNCC1C)n(C)c(=O)n2C (stereo not given) | 84 | 66 | 56.5 | 55.3 | 98.7 |  |  |  |  | 
11 | Cc1ccc2[nH]c(CNCCCc3ccncc3)cc(=O)c2c1 [UCSF924NC] | 95.8 | 33.3 | 37.3 | 52.3 | 127 |  |  |  |  | 
12 | COc1ccc2c(c1)O[C@@H](c1ccc(OC)c(OC)c1)C[C@H]2NC(=O)C1(c2ccc3c(c2)OC(F)(F)O3)CC1 [A-1596586] | 129 | 44.6 | 42.2 | 51.3 | 121 |  |  |  |  | 
13 | COc1ccc(CCc2nc3cc(-c4c(C)noc4C)ccc3n2C[C@H](C)N2CCOCC2)cc1Cl | 91.4 | 61.4 | 47.7 | 78.6 | 121 |  |  |  |  | 
14 | NS(=O)(=O)c1cc(NC(=O)C2(c3ccccc3Cl)CC2)ccc1Oc1cccc(Cl)c1 [BAY-207] | 78.6 | 34.8 | 42.5 | 61 | 86.8 |  |  |  |  | 
15 | CC(C)NC(=O)N1CC[C@H](NC2=Nc3cc(F)ccc3N(CC(F)F)c3ccc(Cl)cc32)C1 | 79 | 36 | 61.4 | 42.9 | 89.7 |  |  |  |  | 
16 | Cn1cnc2c(F)c(Nc3ccc(Br)cc3Cl)c(C(=O)NOCCO)cc21 [SELUMETINIB] | 62.9 | 22.1 | 27.6 | 48.4 | 51.6 |  |  |  |  | 
17 | N#CN1CC[C@@H](C(=O)Nc2nc3c(s2)CN(C(=O)CN=[N+]=[N-])CC3)C1 [JYQ88] | 76.5 | 34.4 | 45.5 | 78.4 | 137 |  |  |  |  | 
18 | CCS(=O)(=O)Nc1ccc(Oc2ccc(F)cc2F)c(-c2cn(C)c(=O)c3[nH]ccc23)c1 [MIVEBRESIB] | 37.5 | 1.95 | 29.2 | 25.4 | 5.68 |  |  |  |  | 
19 | O=C(NCCCC1CCCCC1)c1ccc(CNC(=O)c2cnn(-c3ccccc3)c2C(F)(F)F)cc1 [SR-321] |  |  |  |  |  | 138 | 23.5 | 48.4 | 78 | 92
